Source: patent US20060135458A1, “Antiviral oligonucleotides” (priority 2002, published 2006)
In the oligonucleotide strings, read from the 5' end, every base follows the letter of its sugar. An asterisk marks phosphorothioate; unmarked linkages are phosphodiester. Other units and linkages are bracketed, terminal groups are in braces. A string of capitals states the bases alone. d = 2'-deoxy (DNA)

Test system: Bal 31
Parameters: key to the marks not given beside the values

## REP 2029: A40 (polyA) PS-ON (DNA dA*dA*dA*dA*dA*dA*dA*dA*dA*dA*dA*dA*dA*dA*dA*dA*dA*dA*dA*dA*dA*dA*dA*dA*dA*dA*dA*dA*dA*dA*dA*dA*dA*dA*dA*dA*dA*dA*dA*dA)
  Nuclease resistance, Bal 31: ++++
